Laboratory results: US12370180B2, “P38 map kinase inhibitors for treating Friedreich's ataxia” (THE TRUSTEES OF THE UNIVERSITY OF PENNYSLVANIA, priority 2015, dated 2025)
“Also recorded” adds a separate entry of the source.

Key:
Type in all cases: cell-based, human
primary FA fibroblasts = experiment: Growth of primary FA fibroblasts in beta-hydroxybutyrate (BHB) based mitochondrial stress medium; settings: for reversal of the slow-growth phenotype (growth defect) of primary FA fibroblasts: beta-hydroxybutyrate-based media
Procedure: The data shown are the means of triplicate samples+/−one SD. ***p<0.005. (C) Survival of normal control fibroblasts (GM8402) and FA fibroblasts (GM4078) in DMEM plus BHB after 12 days in culture. ***p<0.005. […] Cells were seeded at 80,000 cells per 100 mm dish and were kept sub-confluent. The data shown are the means of triplicate samples+/−one SD. ***p<0.005.
FA 3665B cells were infected with gFA2 (squares), gFA11 (diamonds) or a random clone (C3) (triangles). Cells were then sorted and GFP-positive cells were grown in DMEM plus BHB 5 mM (FIG. 4A) or in DMEM plus 5 mM glucose (FIG. 4B) ***=p […].
FA is caused by intronic trinucleotide repeat expansions that decrease expression of frataxin, a protein involved in mitochondrial iron-sulfur-cluster biogenesis. Clones were selected that reverse the slow-growth phenotype of primary FA fibroblasts in media with beta-hydroxybutyrate, a carbon source that particularly stresses cells with mitochondrial dysfunction (FIGS. 1 and 3). Among several clones identified, two clones have been tested and confirmed (FIG. 4): “Clone 2” (also referred to as gFA2) and “Clone 11” (also referred to as gFA11). The DNA coding strand for the shRNA sequences of those two […] (gFA2 and gFA11) are provided below, with the loop-encoding sequences in brackets. The shRNAs themselves are RNA versions of these sequences, with T changed to U.
These experiments have been repeated several times, over 4 days, 7 days, and 10 days, with the same results. Therefore, random shRNA screening can be combined with bioinformatic pattern matching to identify conventional chemical-compound therapeutic candidates, and potential therapeutic target proteins.

frataxin = experiment: Frataxin expression in primary FA fibroblasts; settings: vector-expressed shRNA or 10 nM transfected siRNA, BHB medium
Procedure: Frataxin expression in GM3816 cells infected with gFA2 vs. a random clone (C3) (FIG. 5A) and in GM3665B cells transfected with 10 nM gFA2 siRNA or a random clone (C3) (FIG. 5B). Cells were transfected every 3-4 days for two weeks and kept in BHB medium after the first transfection. ***=p value<0.005
FIG. 6: Hit-optimization of clone gFA2. A sub-library of ˜3000 sequences was constructed, each with a limited number of random mutations compared to gFA2. This sub-library was screened as described previously and two gFA2-variant clones, gFA2.8 and gFA2.10, were identified. […] (Cells were transfected every two days for one week and kept in DMEM plus 5 mM BHB after the first transfection. ***=p value<0.005). gFA2.8 has 5 mutations compared to gFA2; as a result, there are 5 mismatched bases in the hairpin structure.

cytokine secretion = experiment: Cytokine secretion into media of FA cells, measured by ELISA; settings: media of FA cells expressing clone vs gFA11-Mut1
From the text: FIGS. 9A and 9B show the effect of gFA11 and gFA11-Mut1 shRNA sequences on the secretion of cytokines as measured by ELISA. […] These secretion patterns matched the expression changes seen on microarray analysis of mRNAs of the same cytokines.
(§1) Of relevance, it has been shown that silencing of the FA disease gene induces a senescence phenotype. […] Finally, gene-expression analyses of cells expressing Clone 11 also indicated an up-regulation of genes involved in DNA repair.

GM3816 cells = experiment: Sensitivity of FA cells to ionizing (gamma) radiation; settings: 0.6 Gy irradiation
From the text: as §1

## Cc1ccc(-n2nc(C(C)(C)C)cc2NC(=O)NCc2cc(F)ccc2Oc2ccc3c(cnn3CCO)c2)cc1 [ARRY-614, pexmetinib]
Primary FA fibroblasts
  reversal of the slow-growth phenotype (growth defect) of primary FA fibroblasts: reversal of the growth defect

## Cc1ccc(-n2nc(C(C)(C)C)cc2NC(=O)Nc2ccc(OCCN3CCOCC3)c3ccccc23)cc1 [BIRB-796, doramapimod]
Primary FA fibroblasts
  reversal of the slow-growth phenotype (growth defect) of primary FA fibroblasts: recapitulate the phenotype induced by Clone 11; also recorded: reverses the growth defect

## Cc1c(F)cc(C(=O)NC2CC2)cc1-c1ccc(C(=O)NCC(C)(C)C)cn1 [GW-856553, losmapimod]
Primary FA fibroblasts
  reversal of the slow-growth phenotype (growth defect) of primary FA fibroblasts: reversal of the growth defect

## CNC(=O)c1ccc(C)c(-n2c(C)cc(OCc3ccc(F)cc3F)c(Br)c2=O)c1 [PH-797804]
Primary FA fibroblasts
  reversal of the slow-growth phenotype (growth defect) of primary FA fibroblasts: reversal of the growth defect

## Oc1ccc(-c2nc(-c3ccncc3)c(-c3ccc(F)cc3)[nH]2)cc1 [SB-202190]
Primary FA fibroblasts
  reversal of the slow-growth phenotype (growth defect) of primary FA fibroblasts: recapitulate the phenotype induced by Clone 11; also recorded: reversal of the growth defect

## C[S+]([O-])c1ccc(-c2nc(-c3ccncc3)c(-c3ccc(F)cc3)[nH]2)cc1 (centres unmarked) [SB-203580]
Primary FA fibroblasts
  reversal of the slow-growth phenotype (growth defect) of primary FA fibroblasts: recapitulates the phenotype induced by Clone 11; also recorded: reverses the growth defect
Primary FA fibroblasts; listed as SB203580
  reversal of the slow-growth phenotype (growth defect) of primary FA fibroblasts: increase the growth of FA cells in a dose-dependent manner

## NC(=O)c1ccc(N(C(N)=O)c2c(F)cccc2F)nc1-c1ccc(F)cc1F [VX-702]
Primary FA fibroblasts; at 500 nM, p=0.02
  increased growth: 1.2 fold
Primary FA fibroblasts
  reversal of the slow-growth phenotype (growth defect) of primary FA fibroblasts: recapitulate the phenotype induced by Clone 11; also recorded: reversal of the growth defect

## O=c1ncn2nc(Sc3ccc(F)cc3F)ccc2c1-c1c(Cl)cccc1Cl [VX-745]
Primary FA fibroblasts
  reversal of the slow-growth phenotype (growth defect) of primary FA fibroblasts: reversal of the growth defect

## gFA11-Mut1: version of Clone 11 with a point mutation in the seed sequence, SEQ ID No: 5 and 6 (chain 1 AACACAAUGGAAGAGUGCUGGGUDGDG; chain 2 UGUUGUGUUACCUUCUCACGACCCACC; listed as RNA, chemistry not fully specified; one strand is listed 3' to 5')
Primary FA fibroblasts
  reversal of the slow-growth phenotype (growth defect) of primary FA fibroblasts: diminished; also recorded: the growth-enhancement phenotype of gFA11 is affected

## gFA11: hit shRNA from random library, SEQ ID No: 2; siRNA version SEQ ID No: 3 and 4 (chain 1 AACAGAAUGGAAGAGUGCUGGGUDGDG; chain 2 UGUUGUCUUACCUUCUCACGACCCACC; listed as RNA, chemistry not fully specified; one strand is listed 3' to 5')
Primary FA fibroblasts
  reversal of the slow-growth phenotype (growth defect) of primary FA fibroblasts: increase the growth of FA fibroblasts; also recorded: growth-enhancing effect; also recorded: recapitulate the phenotype induced by the corresponding shRNA sequence
Primary FA fibroblasts; listed as Clone 11
  reversal of the slow-growth phenotype (growth defect) of primary FA fibroblasts: more effective than Clone 2
frataxin
  frataxin expression: does not increase frataxin expression
Cytokine secretion; p<0.001
  GM-CSF secretion: decreases
  VEGF secretion: decreases
Cytokine secretion; p=0.001
  IL8 (IL-8) secretion: decreases
Cytokine secretion; p=0.003
  GRO secretion: decreases
Cytokine secretion; p=0.005
  MCP-1 secretion: decreases
Cytokine secretion; p=0.01
  IL1-beta (IL-1-beta) secretion: decreases
  IP-10 secretion: decreases
Cytokine secretion; p=0.04
  RANTES secretion: decreases
Cytokine secretion; p=0.09
  IL6 (IL-6) secretion: decreases
GM3816 cells
  cell susceptibility to gamma irradiation: are able to recover
GM3816 cells; listed as Clone 11
  cell susceptibility to gamma irradiation: protective

## ralimetinib dimesylate [LY-2228820]
Primary FA fibroblasts; at 50 nM, p<0.005
  increased growth: 1.6 fold
Primary FA fibroblasts
  reversal of the slow-growth phenotype (growth defect) of primary FA fibroblasts: recapitulate the phenotype induced by Clone 11; also recorded: reversal of the growth defect

B1: gFA2: hit shRNA (also used as siRNA) from random shRNA library, SEQ ID No: 1 (nucleic acid)
chain: GCCAATCGGGGAGGTCGGCGCATATCATGCTAAACCATGATATGCGCCGACCTCCCCGATTGGC
Primary FA fibroblasts
  reversal of the slow-growth phenotype (growth defect) of primary FA fibroblasts: increase the growth of FA fibroblasts
frataxin
  frataxin expression: increases frataxin expression
frataxin; listed as Clone 2
  frataxin expression: partially reverses the decreased expression of frataxin

B2: gFA2.8: gFA2-variant clone with 5 mutations compared to gFA2, SEQ ID No: 9 (nucleic acid)
chain: GCCCCTCGGGCAGGTCGGCGAATATCATGCTAAACTATGATATGCGCCGACCTCCCCGATTGGC
modifications: expressed or natural sequence
frataxin
  frataxin expression: more efficacious

B3: gFA2.10: gFA2-variant clone, SEQ ID No: 10 (nucleic acid)
chain: GCCCCTCGGGCAGGTCGGCGAATATCATGCTAAACTATGATATGCGCCGACCTTCCCGATTGGC
modifications: expressed or natural sequence
frataxin
  frataxin expression: more efficacious
